From patent US4045433A, “1,3,4,5-Tetrahydro-2H-1,4-benzodiazepin-2-ones” (priority 1974, dated 1977)
“Also recorded” adds a separate entry of the source. Like-named read-outs stand apart in the source and are kept apart here.

Key:
[1] = system: CFLP mice; assay: Sedative and muscle relaxant effects (overall assessment); assay type: in vivo; conditions: in words
[2] = system: CFLP mice; assay: Rotarod test (muscle incoordination and ataxia); assay type: in vivo; conditions: for Rotarod ED50 : Antimetrazole ED50: ratio (1) of Table 2, p.o.
Method: (§1) a. Rotarod test: The test was carried out according to the method of Kinnard and Carr (Brit. J. Pharmacol. Exp. Ther. 121, 354 (1957)). […] The ED50 values were calculated from the percentage of the animals falling down within 120 sec.

[3] = Rotarod test (muscle incoordination and ataxia); assay type: in vivo, CFLP mice; conditions: mouse, in vivo, 1 hour before test
Method: as §1

[4] = system: CFLP mice; assay: Narcosis potentiating effect (sodium barbiturate); assay type: in vivo; conditions: for ED50: Mus musculus, po, 1 hour before sodium barbiturate 100 mg./kg. i.p.; for Narcosis potentiation ED50 : Antimetrazole ED50: ratio (3) of Table 2, p.o.
[5] = system: CFLP mice; assay: Antimetrazole activity (protection from tonic extensor spasm); assay type: in vivo; conditions: for ED50: Mus musculus, 1 h
Method: 1. The first series of examinations was carried out according to the method of Everett and Richards (Everett G. M., Richards R. K.: J. Pharm. Exp. Ther. 81, 402 (1944)). 125 mg./kg. of metrazole were administered subcutaneously to the test animals. 1 hour after the administration the animals protected from tonic extensor spasm and the surviving animals were counted.

[6] = Traction test (muscle incoordination and ataxia); design: species or system CFLP mice; conditions: mouse, in vivo, po, 1 hour before test; read-out: Traction test ED50
Method: b. Traction test: The test was carried out according to the method of Theobald et al. (Arch. int. Pharmacodyn. 148, 560 (1964)). The two anterior limbs of the test animals were placed onto a horizontal rod so as to let the animals clutch the rod. […] The ED50 values were calculated from the percentage of the animals showing negative response.

[7] = system: CFLP mice; assay: Acute toxicity; assay type: in vivo
[8] = Acute toxicity; assay type: in vivo, CFLP mice; conditions: mouse, in vivo, death rate observed for one week
[9] = system: CFLP mice; assay: Maximum electroshock (anti-electroshock activity); assay type: in vivo; conditions: 1 hour before test; for ED50: Mus musculus, 1 h
From the text: 2. Maximum electroshock stimulus (100 Hz, 30 V, 0.2 sec.) was applied according to the method of Swinyard et al. (Swinyard E. A., Brown W. C., Goodman, L. S.: J. Pharmacol. 106, 319 (1952)). The animals showing no tonix extension on the hind limb upon stimulus were considered as protected.

[10] = system: CFLP mice; assay: Disappearance of righting reflex; assay type: in vivo; conditions: Mus musculus, po
[11] = system: CFLP mice; assay: Antagonism of strychnine spasm; assay type: in vivo; conditions: for ED50: Mus musculus, po, 1 h, read-out: Antistrychnine activity ED50; for Antistrychnine ED50 : Antimetrazole: ratio (2) of Table 2, p.o.
Method: Tonic extensor spasm was produced by administering an intraperitoneal dosage of 2 mg./kg. of strychnine to the animals (Kerley T. L., Richards A. G., Begley, R. W., Abren, B. E. and Weaver, L. C: J. Pharmacol. Exp. Ther. 132, 360 (1961)). The animals showing no spasm were considered as protected.

[12] = system: CFLP mice; assay: Hexobarbital narcosis potentiating effect; assay type: in vivo; conditions: screen test, i.p., 1 hour before hexobarbital 60 mg./kg. into tail vein; change of sleeping period related to controls
Method: The hexobarbital narcosis potentiating effect was determined by the method of Rumke et al. (Arch. Int. […]. The change of sleeping period was expressed in percent related to the controls.

[13] = po, 12/min., 120 sec., read-out: Rotarod test ED50
[14] = po, p.o., 1 hour before test, metrazole 125 mg./kg. s.c., 95% confidence limit in next line, read-out: Antimetrazole activity ED50
[15] = po, read-out: Acute toxicity (LD50)
[16] = po, p.o., 100 Hz, 30 V, 0.2 sec., read-out: Anti-electroshock activity ED50
[17] = ip, screen test, i.p., read-out: Rotarod ED50
[18] = ip, screen test, i.p., 1 hour before test, metrazole 125 mg./kg. s.c., read-out: Antimetrazole ED50
[19] = ip, screen test, i.p., read-out: Anti-electroshock ED50 ip.

| SMILES | ED50 [5, 18] [mg/kg] | LD50 at 168 h ([8]; ip, read-out: LD50 i.p.) [mg/kg] | ED50 [9, 19] [mg/kg] | Hexobarbital potentiation, % [12] [%] | other results |
| --- | --- | --- | --- | --- | --- |
| CN1C(=O)CN(C(N)=O)C(c2ccccc2)c2cc(Cl)ccc21 (racemic) [Compound "A", 1-methyl-4-carbamoyl-5-phenyl-7-chloro-1,3,4,5-tetrahydro-2H-1,4-benzodiazepine-2-one] | – | – | – | – | sedative and muscle relaxant effects compared with Diazepam [1]: provokes muscle relaxation and sedation only in higher dosages; also recorded: much lower; relation of the effects to those of the reference substances ([1]; vs Chlorodiazepoxide and Diazepam): more closely related to those of Chlorodiazepoxide than of Diazepam; dosages provoking muscle incoordination, muscle relaxation, and narcosis potentiation in relation to the dosage provoking anticonvulsive effect ([1]; vs reference substances Diazepam and Chlorodiazepoxide): clearly more advantageous than the reference substances; Rotarod ED50 : Antimetrazole ED50 [2]: 10.2; TD50 at 1 h [3, 13]: 6.7 mg/kg; ED50 [4]: 8.8 mg/kg; Narcosis potentiation ED50 : Antimetrazole ED50 [4]: 13.3; ED50 [5, 14]: 0.66 mg/kg; tetrachor spasm inhibiting effect / anticonvulsive effect compared with Diazepam ([5]; in words, vs Diazepam): practically identical to that of Diazepam; animals protected against metrazole spasm ([5]; single intravenous dosage of 5 mg./kg., 7 hours after administration): 50%; TD50 at 1 h [6]: 26.9 mg/kg; therapeutic index compared with Diazepam ([7]; in words): more favourable; LD50 at 168 h [8, 15]: 1680 mg/kg; ED50 [9, 16]: 19.3 mg/kg; ED50 [10]: 1400 mg/kg; ED50 [11]: 26 mg/kg; Antistrychnine ED50 : Antimetrazole [11]: 39.4 |
| CN1C(=O)CN(C(N)=O)C(c2ccccc2)c2cc(Cl)ccc21 (single isomer, unassigned; (+)) [Example 55, (+)-1-Methyl-4-carbamoyl-5-phenyl-7-chloro-1,3,4,5-tetrahydro-2H-1,4-benzodiazepine-2-one] | 1.65 | 611 | 10 | 368 | TD50 at 1 h [3, 17]: 7 mg/kg |
| CN1C(=O)CN(C(N)=O)C(c2ccccc2)c2cc(Cl)ccc21 (single isomer, unassigned; (-)) [Example 56, (-)-1-Methyl-4-carbamoyl-5-phenyl-7-chloro-1,3,4,5-tetrahydro-2H-1,4-benzodiazepine-2-one] | – | – | – | 112 | Rotarod ED50 ([2]; screen test, i.p., 1 hour before test, 60 min): 13.0 mg/kg; Antimetrazole ED50 ([5]; screen test, i.p., 1 hour before test, metrazole 125 mg./kg. s.c., 60 min): 2.2 mg/kg; LD50 i.p. ([7]; i.p., death rate observed for one week, 10080 min): 661.2 mg/kg; Anti-electroshock ED50 ip. ([9]; screen test, i.p., 60 min): 8.4 mg/kg |
| CNC1=Nc2ccc(Cl)cc2C(c2ccccc2)=[N+]([O-])C1 [Chlorodiazepoxide, reference compound] | – | – | – | – | Rotarod ED50 : Antimetrazole ED50 [2]: 4.9; TD50 at 1 h [3, 13]: 12.2 mg/kg; ED50 [4]: 8.1 mg/kg; Narcosis potentiation ED50 : Antimetrazole ED50 [4]: 3.3; ED50 [5, 14]: 2.47 mg/kg; TD50 at 1 h [6]: 31.2 mg/kg; LD50 at 168 h [8, 15]: 850 mg/kg; ED50 [9, 16]: 23.5 mg/kg; ED50 [10]: 436 mg/kg; ED50 [11]: 28.4 mg/kg; Antistrychnine ED50 : Antimetrazole [11]: 11.5 |
| CN1C(=O)CN=C(c2ccccc2)c2cc(Cl)ccc21 [Diazepam] | – | – | – | – | Rotarod ED50 : Antimetrazole ED50 [2]: 4.3; ED50 [4]: 3.9 mg/kg; Narcosis potentiation ED50 : Antimetrazole ED50 [4]: 5.2; ED50 [5, 14]: 0.75 mg/kg; ED50 [9, 16]: 8.29 mg/kg; ED50 [10]: 238 mg/kg; ED50 [11]: 5.71 mg/kg; Antistrychnine ED50 : Antimetrazole [11]: 7.6 |
| CCOC(=O)N1CC(=O)Nc2ccc([N+](=O)[O-])cc2C1c1ccccc1 (stereo not shown) [Example 2, 4-Ethoxycarbonyl-5-phenyl-7-nitro-1,3,4,5-tetrahydro-2H-1,4-benzodiazepine-2-one] | 12.5 | > 1600 | 14 | 168 | – |
| NC(=O)N1CC(=O)Nc2ccc(Cl)cc2C1c1ccccc1 (stereo not shown) [Example 13, 4-Carbamoyl-5-phenyl-7-chloro-1,3,4,5-tetrahydro-2H-1,4-benzodiazepine-2-on] | 4.9 | 367 | 14 | 89 | TD50 at 1 h [3, 17]: 13.5 mg/kg |
| CNC(=O)N1CC(=O)Nc2ccc([N+](=O)[O-])cc2C1c1ccccc1 (stereo not shown) [Example 14, 4-Methylcarbamoyl-5-phenyl-7-nitro-1,3,4,5-tetrahydro-2H-1,4-benzodiazepine-2-one] | 19.5 | 936 | 20 | 75 | – |
| CNC(=O)N1CC(=O)Nc2ccccc2C1c1ccccc1 (stereo not shown) [Example 15, 4-Methylcarbamoyl-5-phenyl-1,3,4,5-tetrahydro-2H-1,4-benzodiazepine-2-one] | 20 | > 500 | 20 | 93 | – |
| CNC(=O)N1CC(=O)Nc2ccc(Cl)cc2C1c1ccccc1 (stereo not shown) [Example 16, 4-Methylcarbamoyl-5-phenyl-7-chloro-1,3,4,5-tetrahydro-2H-1,4-benzodiazepine-2-one] | 4.1 | 800 | 14 | 104 | – |
| CCCCNC(=O)N1CC(=O)Nc2ccc([N+](=O)[O-])cc2C1c1ccccc1 (stereo not shown) [Example 18, 4-n-Butylcarbamoyl-5-phenyl-7-nitro-1,3,4,5-tetrahydro-2H-1,4-benzodiazepine-2-one] | 14 | 320 | 20 | 77 | – |
| CC(NC(=O)N1CC(=O)N(C)c2ccc(Cl)cc2C1c1ccccc1)c1ccccc1 (stereo not shown) [Example 24, 1-Methyl-4-(1-methyl-benzylcarbamoyl)-5-phenyl-7-chloro-1,3,4,5-tetrahydro-2H-1,4-benzodiazepine-2-one] | 13.5 | 271 | 20 | 96 | – |
| CC(=O)N1CC(=O)N(C)c2ccc(Cl)cc2C1c1ccccc1 (stereo not shown) [Example 28, 1-Methyl-4-acetyl-5-phenyl-7-chloro-1,3,4,5-tetrahydro-2H-1,4-benzodiazepine-2-one] | 7 | 312 | 20 | 125 | – |
| CN1C(=O)CN(C(=O)c2ccccc2Cl)C(c2ccccc2)c2cc(Cl)ccc21 (stereo not shown) [Example 31, 1-Methyl-4-(o-chlorobenzoyl)-5-phenyl-7-chloro-1,3,4,5-tetrahydro-2H-1,4-benzodiazepine-2-one] | 14 | > 1600 | 20 | 85 | – |
| CN1C(=O)CN(C=O)C(c2ccccc2)c2cc(Cl)ccc21 (stereo not shown) [Example 33, 1-Methyl-4-formyl-5-phenyl-7-chloro-1,3,4,5-tetrahydro-2H-1,4-benzodiazepine-2-one] | 3.4 | 688 | 14 | 110 | TD50 at 1 h [3, 17]: 23 mg/kg |
